Experimental data as given in patent US20250041283A1, “COCRYSTAL OF AN IDH1 INHIBITOR, PROCESS OF PREPARATION THEREOF, PHARMACEUTICAL COMPOSITIONS THEREOF, AND METHODS OF TREATMENT INVOLVING THE SAME” (Servier Pharmaceuticals LLC, priority 2023, published 2025).

What was measured:
[1] = Comparative rat PK study, oral capsules; format: in vivo; conditions: male Wistar rats, 24 mg/kg
Description: The objective of this study was to compare the pharmacokinetics (PK) of four oral (PO) dosage forms of Compound 1 in male Wistar rats (4 groups, N=3/group). Lubricated mixtures prepared from Examples 5A (prepared from Form 1 and Form T11) and 5B (prepared from cocrystal of Example 1) and amorphous solid dispersion of Compound 1 obtained through spray drying as in commercial batches were manually and individually filled in capsules (Size 9).
The administered dose was 24 mg/kg, considering that each rat's weight was around 250 g.
Methods: Animals were fasted approximately 6 hours before dosing and fed 3 at 4 hours post-dose. All animals had free access to water. Compound 1 dose were given to rats via oral gavage (2 capsules/one single administration). Blood samples were collected via the saphenous vein into test tubes containing potassium ethylenediaminetetraacetic acid (K2EDTA) from all animals at 0.25, 0.5, 1, 2, 4, 8, 24, 48 and 72 hours post-dose. Blood sample were centrifuged at 2000 g for 5 minutes to obtain plasma samples. Compound 1 concentration in plasma samples was quantified using a liquid chromatography with tandem mass spectrometry (LC-MS/MS) method. The lower limit of quantification was 1.00 ng/mL with a sample volume of 20 μL.

[2] = Tablets by direct compression: hardness and tensile strength; format: physicochemical; conditions: 50 mg tablets, 0.5% magnesium stearate
Description: Tablets were prepared by direct compression using a STYL'ONE EVO compaction simulator from Medelpharm Instruments.
Compound 1, either in Form 1, Form T11 or as a glutaric acid cocrystal type A was lubricated by 0.5% magnesium stearate before compression. 99.5% of Compound 1 and 0.5% of magnesium stearate (e.g., 4.975 g of Compound 1 and 0.025 g of magnesium stearate) were used. Compound 1 was weighed, and magnesium stearate was sifted on a 0.4 mm sieve and added progressively to Compound 1. The mixture was homogenized using a Turbula T2F blender for 5 minutes.
50 mg tablets were prepared using a STYL'ONE EVO compaction simulator applying a compressing force of 2.5 kN or 5.0 kN.

[3] = Four weeks stability study of lubricated mixtures and tablets (XRPD); format: physicochemical; conditions: 4 weeks, open vials, 25° C./60% RH and 40° C./75% RH
Description: Four weeks stability of samples of lubricated mixtures of Example 3B and 5B and tablets of Example 6 prepared from cocrystal of Example 1 was tested according to the following protocol.
All the samples were stored 4 weeks in controlled temperature and humidity chambers in open vials at 25° C./60% RH or 40° C./75% RH. The XPRD analyses were performed extemporaneously in order to be representative of all the samples at temperature and humidity equilibria.
Tablets of Cocrystal+AQ/AV or AV (from Example 6) were gently grinded leading a powder suitable for XRPD analysis. Lubricated mixtures from Examples 3B and 5B were analyzed without grinding. The XRPD patterns were recorded from 3.5° 2q to 35° 2q using an Empyrean diffractometer from Panalytical operating in the transmission mode with CuKα radiation (l=1.5418 Å) at 45 kV and 40 mA and with a 0.013° 2q step size for 30 minutes.

[4] = Physicochemical stability of cocrystal powder stressed at different temperatures and humidities (XRPD); conditions: 6 weeks and 12 months at 25° C./60% RH, 25° C./90% RH, 40° C./75% RH and 50° C.
Description: (§1) FIG. 5 depicts the overlay of the X-ray diffraction spectra of the glutaric acid cocrystal type A of Compound 1 stressed 6 weeks at 25° C./60% RH, 25° C./90% RH, 40° C./75% RH and 50° C. with the theoretical X-ray diffraction spectrum of the said cocrystal (calculated form the single crystal structure).
as §1, with “FIG. 6” for “FIG. 5”, “stressed 12 months” for “stressed 6 weeks”
The XRPD patterns were recorded from 3.5° 2q to 35° 2q using an Empyrean diffractometer from Panalytical operating in the transmission mode with CuKα radiation (l=1.5418 Å) at 45 kV and 40 mA and with a 0.013° 2q step size for 15 minutes (list of examples).

[5] = Flowability of lubricated mixtures (European Pharmacopeia); format: physicochemical
Description: The flowability of the lubricated mixture previously prepared was measured according to the Guidelines of European Pharmacopeia.

[6] = Solubility in biorelevant media (SGF, FASSIF); format: physicochemical; conditions: thermodynamic from solid, 37° C., after 1 h
[7] = Sorption/desorption isotherm 0% RH to 90% RH at 25° C.; format: physicochemical
Description: The sorption isotherm of the cocrystal was recorded between 0% RH and 90% RH at 25° C. (see FIG. 7).
The sorption/desorption isotherm of the cocrystal was recorded using the following method: • Equilibrate the sample at 0% RH until the dm/dt was below 0.0005% for 30 consecutive minutes or until maximum 24 hours. • Increase of the relative humidity up to 90% RH with step every 10% RH. Each step was maintained until the dm/dt was below 0.0005% for 30 consecutive minutes or until maximum 24 hours. • Decrease of the relative humidity up to 0% RH with step every 10% RH. Each step was maintained until the dm/dt was below 0.0005% for 30 consecutive minutes or until maximum 24 hours.

[8] = compressive force applied 2.5 kN
[9] = compressive force applied 5.0 kN
[10] = lubricated mixtures of Examples 3A and 3B

Inter-individual variability [1]: 11%
bioavailability ([1]; rat, plasma, read-out: Relative bioavailability compared to commercial formulation): 61%
Tablet hardness [2, 8]: 41.6 N
Tensile strength [2, 8]: 2.562 MPa
Tablet hardness [2, 9]: 46.4 N
Tensile strength [2, 9]: 2.998 MPa
Stability of the cocrystal in lubricated mixtures and tablets (AQ/AV or AV) [3]: perfectly stable
Physicochemical stability of the powder [4]: physicochemically stable
Carr's Index [5, 10]: 24%
Carr's Index (flowability) rating [5, 10]: Adequate
Flowability [5, 10]: suitable flowability
Hausner ratio [5, 10]: 1.32
Hausner ratio (cohesion + compressibility) rating [5, 10]: Adequate
Flow time ([5]; lubricated mixtures of Examples 3A and 3B (AV, without AQ), N.S.F. = no spontaneous flow detected): 8.3 s
solubility at 1 h ([6]; simulated gastric fluid, SGF): 8 µg/mL
solubility at 1 h ([6]; FASSIF): 13 µg/mL
Stability in humidity conditions (sorption isotherm) [7]: stable
SMILES: N#Cc1ccnc(N2C(=O)CC[C@H]2C(=O)N(c2cncc(F)c2)[C@H](C(=O)NC2CC(F)(F)C2)c2ccccc2Cl)c1 [Glutaric acid cocrystal of Compound 1]
Kinetics of absorption / absorption profile versus commercial formulation [1]: comparable to the one of the commercial formulation
